Experimental data reported in article PMC9587990, “Molecular basis for isoform-selective inhibition of presenilin-1 by MRK-560” (Nature Communications, 2022).
Values joined by “and” are separate entries in the source; they are usually repeats but may differ in a detail not shown here. Equal entries are not always repeated. Where two headings read alike, the source gives them in different places.

What was measured:
Assay in all cases: in vitro cleavage assay, Aβ40 production by AlphaLISA
Assay type in all cases: biochemical
[1] = molecular target: T1, PS1 L282I γ-secretase complex (Homo sapiens, UniProt P49768, L282I); conditions: for remaining activity at 0.002 µM / remaining activity at 0.01 µM / remaining activity at 0.04 µM / remaining activity at 0.2 µM / remaining activity at 1 µM / remaining activity at 10 µM: 4 h; for remaining activity at 0.002 µM / remaining activity at 0.01 µM / remaining activity at 0.04 µM / remaining activity at 0.2 µM / remaining activity at 1 µM / remaining activity at 10 µM / Caculated Aβ40 production / raw data from α-Lisa reading: PS1 L282I
T1 construct: made in house
Protocol: (§1) In total we generated six variants, including single and double residue swapping of Thr281/Leu282 in PS1 with Pro287/Ile288 in PS2, respectively. MRK-560 response to the six PS1/PS2 mutant-containing complexes, each purified to homogeneity, was examined in the in vitro cleavage assay (Fig. 4). All proteins used for the activity assay were sub-cloned, expressed and purified as described. Protein concentration was determined using the Bradford method. […] The cleavage reaction was conducted at 37 °C for 4 h. The cleaved products of these substrates were detected using a monoclonal antibody (1:1000 dilution, CW0299, CWBio) against the C-terminal Myc tag. Aβ40 production was detected using the AlphaLISA assay (PerkinElmer) as described. The IC50 values and the inhibition curves were calculated using Prism 8.0. Statistical analysis of Aβ40 was performed using Prism 8 (GraphPad Software, San Diego, CA, USA). IC50 were determined by a four-parameter logistic regression. The statistical details can be found in Figs. 1, 4 and legends. Data are expressed as mean ± SD.

[2] = molecular target: T2, PS1 T281P γ-secretase complex (Homo sapiens, UniProt P49768, T281P); conditions: for remaining activity at 0.002 µM / remaining activity at 0.01 µM / remaining activity at 0.04 µM / remaining activity at 0.2 µM / remaining activity at 1 µM / remaining activity at 10 µM: 4 h; for remaining activity at 0.002 µM / remaining activity at 0.01 µM / remaining activity at 0.04 µM / remaining activity at 0.2 µM / remaining activity at 1 µM / remaining activity at 10 µM / Caculated Aβ40 production / raw data from α-Lisa reading: PS1 T281P
T2 construct: made in house
Protocol: as §1

[3] = molecular target: T3, PS1 TL281-282PI γ-secretase complex (Homo sapiens, UniProt P49768, L282I/T281P); conditions: for remaining activity at 0.002 µM / remaining activity at 0.01 µM / remaining activity at 0.04 µM / remaining activity at 0.2 µM / remaining activity at 1 µM / remaining activity at 10 µM: 4 h, PS1TL 281 282PI; for remaining activity at 0.002 µM: MRK-560 2 nM; for remaining activity at 0.01 µM: MRK-560 10 nM; for remaining activity at 0.04 µM: MRK-560 40 nM; for remaining activity at 0.2 µM: MRK-560 200 nM; for remaining activity at 1 µM: MRK-560 1 μM; for remaining activity at 10 µM: MRK-560 10 μM
T3 construct: made in house
Protocol: as §1

[4] = MRK-560 2 nM, mean of 3 replicates, read-out: Normalized production (control=1), Mean
[5] = MRK-560 2 nM, replicates, read-out: Normalized production (control=1)
[6] = MRK-560 10 nM, mean of 3 replicates, read-out: Normalized production (control=1), Mean
[7] = MRK-560 10 nM, replicates, read-out: Normalized production (control=1)
[8] = MRK-560 40 nM, mean of 3 replicates, read-out: Normalized production (control=1), Mean
[9] = MRK-560 40 nM, replicates, read-out: Normalized production (control=1)
[10] = MRK-560 200 nM, mean of 3 replicates, read-out: Normalized production (control=1), Mean
[11] = MRK-560 200 nM, replicates, read-out: Normalized production (control=1)
[12] = MRK-560 1 μM, mean of 3 replicates, read-out: Normalized production (control=1), Mean
[13] = MRK-560 1 μM, replicates, read-out: Normalized production (control=1)
[14] = MRK-560 10 μM, mean of 3 replicates, read-out: Normalized production (control=1), Mean
[15] = MRK-560 10 μM, replicates, read-out: Normalized production (control=1)
[16] = mean of 3 replicates, read-out: Normalized production (control=1), Mean
[17] = replicates, read-out: Normalized production (control=1)

IC50 [1]: 90 ± 10 nM
remaining activity at 0.002 µM [1, 4]: 111%
remaining activity at 0.002 µM [1, 5]: 110%
remaining activity at 0.01 µM [1, 6]: 108%
remaining activity at 0.01 µM [1, 7]: 104%
remaining activity at 0.04 µM [1, 8]: 83.5%
remaining activity at 0.04 µM [1, 9]: 83.1%
remaining activity at 0.2 µM [1, 10]: 28.8%
remaining activity at 0.2 µM [1, 11]: 28.2%
remaining activity at 1 µM [1, 12]: 3.17%
remaining activity at 1 µM [1, 13]: 3.28%
remaining activity at 10 µM [1, 14]: 0.83%
remaining activity at 10 µM [1, 15]: 0.9%
Caculated Aβ40 production ([1]; MRK-560 2 nM, replicates): 281.9088 and 286.0465 and 285.6579
raw data from α-Lisa reading ([1]; MRK-560 2 nM, replicates): 44163 and 44760 and 44704
Caculated Aβ40 production ([1]; MRK-560 10 nM, replicates): 268.0187 and 289.2618 and 277.4973
raw data from α-Lisa reading ([1]; MRK-560 10 nM, replicates): 42149 and 45223 and 43525
Caculated Aβ40 production ([1]; MRK-560 40 nM, replicates): 213.5518 and 216.6350 and 213.7318
raw data from α-Lisa reading ([1]; MRK-560 40 nM, replicates): 34102 and 34564 and 34129
Caculated Aβ40 production ([1]; MRK-560 200 nM, replicates): 72.5045 and 76.2274 and 73.8042
raw data from α-Lisa reading ([1]; MRK-560 200 nM, replicates): 12089 and 12693 and 12300
Caculated Aβ40 production ([1]; MRK-560 1 μM, replicates): 8.4328 and 8.0651 and 7.9702
raw data from α-Lisa reading ([1]; MRK-560 1 μM, replicates): 1487 and 1425 and 1409
Caculated Aβ40 production ([1]; MRK-560 10 μM, replicates): 2.3045 and 1.9913 and 2.1331
raw data from α-Lisa reading ([1]; MRK-560 10 μM, replicates): 452 and 399 and 423
IC50 [2]: 55 ± 6 nM
remaining activity at 0.002 µM [2, 4]: 99.3%
remaining activity at 0.002 µM [2, 5]: 100%
remaining activity at 0.01 µM [2, 6]: 92.8%
remaining activity at 0.01 µM [2, 7]: 94.3%
remaining activity at 0.04 µM [2, 8]: 62.2%
remaining activity at 0.04 µM [2, 9]: 65.5%
remaining activity at 0.2 µM [2, 10]: 10.6%
remaining activity at 0.2 µM [2, 11]: 11%
remaining activity at 1 µM [2, 12]: 1.23%
remaining activity at 1 µM [2, 13]: 1.29%
remaining activity at 10 µM [2, 14]: 0.61%
remaining activity at 10 µM [2, 15]: 0.59%
Caculated Aβ40 production ([2]; MRK-560 2 nM, replicates): 345.9981 and 336.9974 and 315.8225
raw data from α-Lisa reading ([2]; MRK-560 2 nM, replicates): 52003 and 49017 and 53262
Caculated Aβ40 production ([2]; MRK-560 10 nM, replicates): 309.2203 and 316.1610 and 308.6161
raw data from α-Lisa reading ([2]; MRK-560 10 nM, replicates): 49065 and 47993 and 48079
Caculated Aβ40 production ([2]; MRK-560 40 nM, replicates): 209.7683 and 219.6031 and 196.3837
raw data from α-Lisa reading ([2]; MRK-560 40 nM, replicates): 35008 and 31515 and 33534
Caculated Aβ40 production ([2]; MRK-560 200 nM, replicates): 35.0895 and 36.8617 and 34.7461
raw data from α-Lisa reading ([2]; MRK-560 200 nM, replicates): 6240 and 5889 and 5946
Caculated Aβ40 production ([2]; MRK-560 1 μM, replicates): 4.0253 and 4.3330 and 4.0016
raw data from α-Lisa reading ([2]; MRK-560 1 μM, replicates): 795 and 739 and 743
Caculated Aβ40 production ([2]; MRK-560 10 μM, replicates): 2.0149 and 1.9676 and 2.1390
raw data from α-Lisa reading ([2]; MRK-560 10 μM, replicates): 395 and 424 and 403
IC50 [3]: 195 ± 16 nM
remaining activity at 0.002 µM [3, 16]: 116%
remaining activity at 0.002 µM [3, 17]: 115%
remaining activity at 0.01 µM [3, 16]: 112%
remaining activity at 0.01 µM [3, 17]: 113%
remaining activity at 0.04 µM [3, 16]: 105%
remaining activity at 0.04 µM [3, 17]: 103%
remaining activity at 0.2 µM [3, 16]: 57.2%
remaining activity at 0.2 µM [3, 17]: 59.1%
remaining activity at 1 µM [3, 16]: 11.1%
remaining activity at 1 µM [3, 17]: 11%
remaining activity at 10 µM [3, 16]: 1.33%
remaining activity at 10 µM [3, 17]: 1.43%
SMILES: O=S(=O)(NC1CCC(c2cc(F)ccc2F)(S(=O)(=O)c2ccc(Cl)cc2)CC1)C(F)(F)F (stereo not drawn) [MRK-560, N-[cis-4-[(4-chlorophenyl)sulfonyl]-4-(2,5-difluorophenyl)cyclohexyl]-1,1,1-trifluoromethanesulfonamide]
